Source: PubChem BioAssay (NCI)
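Each compound was tested at five concentrations against cells in 96-well plates for 48 hours. GI50: concentration for 50% inhibition of growth. TGI is the concentration that stops growth completely.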

Legend:
Assay in all cases: growth of human tumour cells (NCI), 48 h
COLO 205 colon = system: COLO 205 colon
OVCAR-3 ovarian = system: OVCAR-3 ovarian
SK-MEL-2 melanoma = system: SK-MEL-2 melanoma
M14 melanoma = system: M14 melanoma
OVCAR-8 ovarian = system: OVCAR-8 ovarian
SN12C renal = system: SN12C renal
NCI-H23 lung = system: NCI-H23 lung
DU-145 prostate = system: DU-145 prostate
RPMI-8226 leukemia = system: RPMI-8226 leukemia
SNB-75 CNS = system: SNB-75 CNS

| Structure (SMILES) | GI50 (COLO 205 colon) [µM] | TGI (COLO 205 colon) [µM] | GI50 (OVCAR-3 ovarian) [µM] | TGI (OVCAR-3 ovarian) [µM] | GI50 (SK-MEL-2 melanoma) [µM] | TGI (SK-MEL-2 melanoma) [µM] | GI50 (M14 melanoma) [µM] | TGI (M14 melanoma) [µM] | GI50 (OVCAR-8 ovarian) [µM] | TGI (OVCAR-8 ovarian) [µM] | GI50 (SN12C renal) [µM] | TGI (SN12C renal) [µM] | GI50 (NCI-H23 lung) [µM] | TGI (NCI-H23 lung) [µM] | GI50 (DU-145 prostate) [µM] | TGI (DU-145 prostate) [µM] | TGI (RPMI-8226 leukemia) [µM] | TGI (SNB-75 CNS) [µM] | GI50 (RPMI-8226 leukemia) [µM] | GI50 (SNB-75 CNS) [µM] |
| --- | --- | --- | --- | --- | --- | --- | --- | --- | --- | --- | --- | --- | --- | --- | --- | --- | --- | --- | --- | --- |
| NC(=NC1CCCCCC1)c1ccc(N2CCN(c3ccc(C(N)=NC4CCCCCC4)cc3)CC2)cc1 | 14.7 | > 50 | 4.28 | 28.8 | 7.65 | 18.1 | 8.74 | 30.5 | 9 | > 50 | 2.33 | 16.9 | 4.77 | 18.5 | 7.59 | > 50 |  |  |  |  |
| Cc1c(C(=O)CC(=O)C(=O)Nc2cccc(C(F)(F)F)c2)[n+](=O)c2ccccc2n1[O-] |  | 13.4 |  | 4.92 |  | 18.5 |  | 11.4 |  | 6.34 |  | 11 |  | 40.5 |  |  | 11.7 | 7.86 |  |  |
| COC1CC(OS(=O)(=O)c2ccc(C)cc2)C(OS(=O)(=O)c2ccc(C)cc2)C(COS(=O)(=O)c2ccc(C)cc2)O1 (stereo not given) |  | > 100 |  | 5.62 |  | 20.1 |  | 17.8 |  | 6.06 |  | 20.8 |  | 15.6 |  |  | 86 | 2.48 |  |  |
| CC[O-].CC[O-].O=Nc1ccc2cc([O-])ccc2c1.O=Nc1ccc2cc([O-])ccc2c1.[Ti+4] | 2.2 | 6.54 | 1.44 | 3.82 | 2.13 | 4.75 |  |  | 1.47 | 3.28 | 1.74 | 3.16 | 1.46 | 3.19 |  |  | 4.6 |  | 1.51 |  |
| CCOC(=O)C#Cc1ccc(C#CC(=O)OCC)cc1 |  | 16.5 |  | > 20.5 |  |  |  | > 20.7 |  | > 23.2 |  |  |  | > 30 |  | > 28 | > 25.3 | 0.609 |  |  |
| CC(C)(C)C(=O)C(c1ccc(-c2cscn2)cc1)c1ccc(-c2cscn2)cc1 |  | > 100 |  | > 84.7 |  | 68.5 |  | > 100 |  | > 100 |  | > 100 |  | > 100 |  |  | > 100 | 25.6 |  |  |
| CC1OC(OC2C(Oc3cc(O)c4c(=O)cc(-c5ccc(O)cc5)oc4c3)OC(CO)C(O)C2O)C(O)C(O)C1O (stereo not given) |  | > 100 |  | > 100 |  | > 100 |  | > 100 |  | > 100 |  | > 100 |  | > 100 |  |  | > 100 | > 100 |  |  |
| COc1cc(-c2cc(-c3nc4ccccc4[nH]3)[nH]n2)cc(OC)c1OC | 3.98 | 15.6 | 4 | 16.4 |  |  | 2.57 | 11.6 | 2.35 | 7.74 | 3.91 | 20.4 | 2.26 | 14.4 | 3.9 | 16.7 | 4.16 | 12.8 | 1.2 | 2.83 |
| CCOC(=O)NC(=O)c1cn(CCCOC(=O)CCCCCCCCC(=O)OCCCn2cc(C(=O)NC(=O)OCC)c(=O)[nH]c2=O)c(=O)[nH]c1=O |  | 64.4 |  | 34.8 |  |  |  | 76 |  | > 100 |  | > 100 |  |  |  |  | 38.3 | > 100 |  |  |
| O[C@]12CCCC[C@H]1CCC2 |  | > 100 |  | > 100 |  | > 100 |  | > 100 |  | > 100 |  | > 100 |  | > 100 |  |  | > 100 | > 100 |  |  |
| CN(C)CCCn1c2c3ccccc3ccc2c2oc(=O)c3ccccc3c21 |  | 5.87 |  | 9.22 |  | 21.1 |  |  |  | 8.75 |  |  |  | 13.1 |  |  | 14 | 12 |  |  |
| Cc1ccc(C2=Nc3ccccc3NC(=O)C2)cc1 |  | > 100 |  | > 100 |  | > 100 |  | > 100 |  | > 100 |  | > 100 |  | > 100 |  |  |  | > 100 |  |  |
| COc1ccc(C(=O)/C=C/c2cc(C(=O)c3cc(OC)c(OC)c(OC)c3)ccc2OC)cc1 |  |  |  |  | 6.04 | > 100 | 4.92 | > 100 | 4.61 | > 100 |  |  |  |  |  |  |  | 33.7 |  | 4.75 |
| COC[C@H]1OC(=O)c2coc3c2[C@@]1(C)C1=C(C3=O)[C@@H]2CCC(=O)[C@@]2(C)C[C@H]1OC(C)=O |  | > 31.6 |  | > 78.1 |  | 16.6 |  | > 59 |  | > 100 |  | > 100 |  | > 100 |  | > 100 | > 63.6 |  |  |  |
| COc1cc2c(cc1OC)[C@@H](C(O)c1ccccc1)NCC2 (stereo not given in full) |  | > 100 |  | > 100 |  | > 100 |  | > 100 |  | > 100 |  | > 100 |  | > 100 |  |  |  | > 100 |  |  |
| O=Cc1[nH]c2ccccc2c1Br |  | 34.7 |  | 56.5 |  | 31.2 |  | 46.3 |  | 64.4 |  | 50.5 |  | 87.8 |  |  |  | 52.6 |  |  |
| CCCCC(=O)[O-].N.N.N.N.N.[Co+3].[O-][Cl+3]([O-])([O-])[O-] | > 100 | > 100 | > 100 | > 100 | > 100 | > 100 | > 100 | > 100 | > 100 | > 100 | > 100 | > 100 | > 100 | > 100 |  |  | > 100 | > 100 | > 100 | 49.3 |
| O=C(N/N=C/c1cc(Br)cc(Br)c1[O-])c1ccccc1O.O=C(N/N=C/c1cc(Br)cc(Br)c1[O-])c1ccccc1O.[Mn+2] |  | 13.2 |  | 1.66 |  | 22.3 |  | 3.48 |  | 14.3 | 1.56 | 16.5 |  |  |  |  | 14.8 | 15.5 | 1.03 |  |
| COC1=C(C(=O)OC(C)(C)C)[C@]2(C)C(C(=O)OC(C)(C)C)C(OC)=C(C(=O)OC(C)(C)C)[C@]2(C)C1C(=O)OC(C)(C)C (stereo not given in full) |  | > 100 |  | > 100 |  | > 100 |  | > 100 |  | > 100 |  | > 100 |  | > 100 |  |  | > 100 | > 100 |  |  |
| CC(=O)O[C@@H]1CC(C)C2CC2C2=C(C(O)OC2O)[C@@H]1C(C)CCC=C(C)C (stereo not given in full) |  | 32.5 |  |  |  | > 100 |  | > 100 |  | 73 |  | 35.9 |  | 55.4 |  |  | 59.1 | 76.1 |  |  |
| Cc1cc2c(c(C#N)c1C)NC(=O)C(CC(=O)O)C2=O (stereo not given) |  | > 100 |  | > 100 |  | > 100 |  | > 100 |  | > 100 |  | > 100 |  | > 100 |  |  | > 100 | > 100 |  |  |
